According to paper PMC10141604, “Small-Molecule Inhibition of Androgen Receptor Dimerization as a Strategy against Prostate Cancer” (ACS Central Science, 2023):

What was measured:
Assay type in all cases: cell-based
22RV1 = test: Clonogenic (colony forming) assay, 22RV1; settings: 2 and 20 μM, 16-18 days
Experimental: 1.5× 10^3 cells/well of LNCaP or 22RV1 were seeded into a 6-well plate. After 1 day
incubation, the medium of each well was removed and washed thrice using PBS. […]

[1] = test system: secreted PSA from LNCaP cells; test: Secreted prostate-specific antigen (PSA) assay; settings: for IC50: Homo sapiens, read-out: IC50, PSA levels secreted in the cellular media
Experimental: Secreted Prostate-Specific Antigen (PSA) Assay
After the AR transcriptional activity assay was completed, 300 μl of the media
supernatant including the secreted PSA was measured using […]® 2000 XPi
Immunoassay System (Siemens Ltd., Erlangen, Germany). […]

GR = target: T1, GR (Homo sapiens, UniProt P04150); test: Luciferase reporter assay for GR (HeLa cells); settings: 10 μM, 1 nM dexamethasone
T1 construct: host or cells: HeLa
T1 sequence (P04150 1-777): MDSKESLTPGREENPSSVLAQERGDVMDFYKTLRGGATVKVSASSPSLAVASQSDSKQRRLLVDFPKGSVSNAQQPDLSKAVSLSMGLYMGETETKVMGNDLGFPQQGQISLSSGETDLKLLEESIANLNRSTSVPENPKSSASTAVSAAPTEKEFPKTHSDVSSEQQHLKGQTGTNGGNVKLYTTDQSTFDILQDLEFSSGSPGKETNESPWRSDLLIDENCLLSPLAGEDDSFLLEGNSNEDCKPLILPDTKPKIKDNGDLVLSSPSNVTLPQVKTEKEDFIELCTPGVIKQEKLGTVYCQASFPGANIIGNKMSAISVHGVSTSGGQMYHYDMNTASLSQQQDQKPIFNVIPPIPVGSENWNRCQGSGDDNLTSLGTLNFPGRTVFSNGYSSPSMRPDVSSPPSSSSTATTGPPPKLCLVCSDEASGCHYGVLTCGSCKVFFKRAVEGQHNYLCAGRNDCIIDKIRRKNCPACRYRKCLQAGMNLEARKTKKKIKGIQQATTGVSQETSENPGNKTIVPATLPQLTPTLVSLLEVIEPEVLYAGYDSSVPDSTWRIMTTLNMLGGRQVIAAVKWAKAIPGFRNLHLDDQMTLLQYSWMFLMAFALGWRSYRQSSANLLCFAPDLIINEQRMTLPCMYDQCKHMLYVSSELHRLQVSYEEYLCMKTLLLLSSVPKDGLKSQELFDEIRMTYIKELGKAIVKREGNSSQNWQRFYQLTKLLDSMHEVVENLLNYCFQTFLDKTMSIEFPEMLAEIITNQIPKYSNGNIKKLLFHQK
Experimental: calculating volume (V= 0.5 × L × W2). Finally, the mice were sacrificed and the tumors were harvested for hematoxylin and eosin (H&E) staining.
Luciferase Reporter Assays for PR, GR, and MR
Addgene), 24 ng pGL4.36[luc2P MMTV Hygro] (Promega) and 5 ng Renilla using HG- […]
Addgene), 24 ng pGL4.36[luc2P MMTV Hygro] (Promega) and 5 ng Renilla using lip3000 transfection reagent (#L3000075, Thermofisher) for 24 h. For MR induction, HEK293T (1 × 10^4 cells/well) were transfected with 71 ng pCMV-MR gifted by Liu et al. 28, 24 ng of pGL4.36[luc2P MMTV Hygro] (Promega) and 5 ng Renilla using lip3000 transfec tion reagent for 24 h. For the antagonistic models, 10 nM /well progesterone for PC3 cells , 1 nM/well dexamethasone for HeLa, and 5 nM/well aldosterone for HEK293T cells were added to stimulate the cells. Meanwhile, each cell line was treated […]
For the agonistic models, the cells were directly treated with the compounds without any hormones. […]
hormones progesterone, dexamethasone, and aldosterone were considered as agonists for PR, GR, and MR, respectively. The luciferase activities were assessed using the Dual-Glo Luciferase system (#E1910, Promega).
Cell Cycle and Apoptosis for LNCaP cells
LNCaP were cultured in 6-well plate with 5× 10^5 cells/well, after incubated at 37 °C for […]
Cell cycle were determined after 48 h incubation by Cell Cycle Staining Kit (#CCS012, MULTI SCIENCES) using […]

[2] = test system: human liver cells (Chang); test: MTT cell viability assay, Chang; settings: 72 h
Experimental: 3-(4,5-dimethythiazol-2-yl)-2,5-diphenyl-2-H-tetrazolium bromide (MTT) colorimetric assay was employed to investigate cell viability. Cells were seeded into 96-well plates with 2-5× 10^3 cells per well (5× 10^3 cells/well for LNCaP, 22RV1, NIH-3T3, GES-1, Chang, […]
NCI-H1299, U2OS, U87) for 1 day incubation at 37 °C. Then, the cells were treated with various concentrations of compounds (22.86 nM - 50 μM) and incubated for 72 h. Then, 10 μl MTT (5 mg/ml) was added into each well and incubated for 4 h. Afterwards, 100 μl of triplex 10% SDS-0.1% HCl-phosophate-buffered saline (PBS) solutions was added into each well and incubated for overnight. The absorbance at 570 nm was measured (Eon, Bioteck, Winooski, VT). […]

IC50 [1] [nM] | GR antagonistic activity (GR) | SMILES | colony formation of 22RV1 (22RV1) | cytotoxicity against Chang [2] | inhibition of the secretion of PSA [1]
180 | largely ineffective | CNC(=O)c1ccc(N2C(=S)N(c3ccc(C#N)c(C(F)(F)F)c3)C(=O)C2(C)C)cc1F [Enz, enzalutamide, reference compound] | not | negligible cytotoxicity | 
350 | largely ineffective | CC(=O)Cc1nsc(NC(=O)c2cc(-c3cccc(C(F)(F)F)c3)oc2C)n1 [Compound M17-B15] | not | negligible cytotoxicity | dose-dependent
